Data taken from US3976768A, “Fortimicin A” (Abbott Laboratories, priority 1973, dated 1976).
In brackets after ≈: the same amount, converted by molar mass. Entries after “also recorded” stand apart in the source; their conditions may differ.

Experiments:
[1] = test system: Proteus vulgaris ATCC 6897; assay: Antibacterial spectrum, agar dilution method (pH 8.0); assay type: cell-based; conditions: ATCC6897, read-out: Minimum inhibitory concentration
[2] = test system: Escherichia coli Juhl KY 4286; assay: In vivo test on mice infected intraperitoneally with Escherichia coli, subcutaneous treatment; set-up: species or system mice infected with Escherichia coli Juhl KY 4286
Description: In this respect, in vivo tests have been conducted on mice infected intraperitoneally with Escherichia coli Juhl KY 4286. The thus infected mice were treated with various concentrations of Fortimicin A by subcutaneous […]. As a result the ED50 of Fortimicin A has been determined to be 6mg/kg. In view of the excellent antibacterial activity, the present substance, Fortimicin A, is considered to be useful in medical treatment as an antibacterial substance. Moreover, in view of the foregoing wide antibacterial spectrum, Fortimicin A may also be useful as a surface antibacterial agent.

[3] = test system: Escherichia coli KY 8314; assay: Antibacterial spectrum, agar dilution method (pH 8.0); assay type: cell-based; conditions: KY8314, resistant to Streptomycin, read-out: Minimum inhibitory concentration
[4] = test system: Escherichia coli KY 8315; assay: as above; assay type: cell-based; conditions: KY8315, resistant to Streptomycin, Kanamycin, Paromomycin and Neomycin, read-out: Minimum inhibitory concentration
[5] = test system: Bacillus subtilis No. 10707; assay: as above; assay type: cell-based; conditions: read-out: Minimum inhibitory concentration
[6] = test system: Salmonella typhosa ATCC 9992; assay: as above; assay type: cell-based; conditions: Salmonella enterica, pH 8, read-out: Minimum inhibitory concentration
[7] = test system: Bacillus cereus ATCC 9634; assay: as above; assay type: cell-based; conditions: ATCC9634, read-out: Minimum inhibitory concentration
[8] = test system: Gram-positive and Gram-negative bacteria; assay: Antibacterial activity against Gram-positive and Gram-negative bacteria (in words); assay type: cell-based
[9] = test system: Escherichia coli KY 8302; assay: Antibacterial spectrum, agar dilution method (pH 8.0); assay type: cell-based; conditions: KY8302, resistant to Chloramphenicol, Streptomycin, Kanamycin, Paromomycin, Tetracycline and Spectinomycin, read-out: Minimum inhibitory concentration
[10] = test system: Shigella sonnei ATCC 9290; assay: as above; assay type: cell-based; conditions: ATCC9290, read-out: Minimum inhibitory concentration
[11] = test system: bacteria of the genus Proteus; assay: Antibacterial activity against bacteria of the genus Proteus (in words); assay type: cell-based
[12] = test system: Escherichia coli; assay: Antibacterial activity against resistant Escherichia coli (in words); assay type: cell-based; conditions: Escherichia coli resistant to various known antibiotics
[13] = test system: Proteus morganii Jenkins KY 4298; assay: Antibacterial spectrum, agar dilution method (pH 8.0); assay type: cell-based; conditions: Morganella morganii, read-out: Minimum inhibitory concentration
[14] = test system: Staphylococcus aureus KY 8957; assay: as above; assay type: cell-based; conditions: KY8957, resistant to Chloramphenicol, Streptomycin, Kanamycin B, Tetracycline and Paromomycin, read-out: Minimum inhibitory concentration
[15] = test system: Proteus vulgaris Abbott JJ, KY 4295; assay: as above; assay type: cell-based; conditions: read-out: Minimum inhibitory concentration
[16] = test system: Escherichia coli ATCC 26; assay: as above; assay type: cell-based; conditions: ATCC26, read-out: Minimum inhibitory concentration
[17] = test system: Proteus rettgeri Hambrook KY 4289; assay: as above; assay type: cell-based; conditions: Providencia rettgeri, read-out: Minimum inhibitory concentration
[18] = test system: Staphylococcus aureus KY 8950; assay: as above; assay type: cell-based; conditions: KY8950, resistant to Streptomycin, Tetracycline, Penicillin and sulfonamide, read-out: Minimum inhibitory concentration
[19] = test system: Proteus rettgeri Booth KY 4288; assay: as above; assay type: cell-based; conditions: Providencia rettgeri, read-out: Minimum inhibitory concentration
[20] = test system: Staphylococcus aureus KY 8956; assay: as above; assay type: cell-based; conditions: KY8956, resistant to Streptomycin, Paromomycin, Tetracycline, Erythromycin and Oleandomycin, read-out: Minimum inhibitory concentration
[21] = test system: Pseudomonas aeruginosa BMH No. 1; assay: as above; assay type: cell-based; conditions: BMHNO.1, read-out: Minimum inhibitory concentration
[22] = test system: Escherichia coli KY 8332; assay: as above; assay type: cell-based; conditions: KY8332, resistant to Kanamycin and Tobramycin, read-out: Minimum inhibitory concentration
[23] = test system: Escherichia coli KY 8327; assay: as above; assay type: cell-based; conditions: KY8327, pH 8, read-out: Minimum inhibitory concentration
[24] = test system: Bacillus cereus var. mycoides ATCC 9463; assay: microbe, parasite or virus in culture; assay type: cell-based; conditions: ATCC9463, pH 8, read-out: Minimum inhibitory concentration
[25] = test system: Staphylococcus aureus; assay: Antibacterial activity against resistant Staphylococcus aureus (in words); assay type: cell-based; conditions: Staphylococcus aureus resistant to various known antibiotics
[26] = test system: Escherichia coli KY 8310; assay: Antibacterial spectrum, agar dilution method (pH 8.0); assay type: cell-based; conditions: KY8310, resistant to Chloramphenicol, Streptomycin, Kanamycin, Gentamicin, Kanamycin B, Paromomycin, Tetracycline and Spectinomycin, read-out: Minimum inhibitory concentration
[27] = test system: Streptococcus faecalis ATCC 10541; assay: as above; assay type: cell-based; conditions: Enterococcus faecalis, ATCC10541, read-out: Minimum inhibitory concentration
[28] = test system: Proteus mirabilis No. 39 KY 4290; assay: as above; assay type: cell-based; conditions: NO.39KY4290, read-out: Minimum inhibitory concentration
[29] = test system: Proteus mirabilis No. 825 KY 4292; assay: as above; assay type: cell-based; conditions: NO.825KY4292, read-out: Minimum inhibitory concentration
[30] = test system: Staphylococcus aureus KY 8953; assay: as above; assay type: cell-based; conditions: KY8953, resistant to Streptomycin, Kanamycin, Paromomycin, Tetracycline, Neomycin, Kanamycin B and Erythromycin, read-out: Minimum inhibitory concentration
[31] = test system: Proteus vulgaris KY 4296; assay: as above; assay type: cell-based; conditions: KY4296, resistant to nalidixic acid, read-out: Minimum inhibitory concentration
[32] = test system: Escherichia coli KY 8331; assay: as above; assay type: cell-based; conditions: KY8331, resistant to Kanamycin, Ribostamycin, Neomycin, Paromomycin and Lividomycin, read-out: Minimum inhibitory concentration
[33] = test system: Klebsiella pneumoniae ATCC 10031; assay: as above; assay type: cell-based; conditions: ATCC10031, read-out: Minimum inhibitory concentration
[34] = Solubility of the free base; assay type: physicochemical
[35] = test system: Staphylococcus aureus KY 8942; assay: Antibacterial spectrum, agar dilution method (pH 8.0); assay type: cell-based; conditions: KY8942, resistant to Kanamycin, Paramomycin, Streptomycin, Gentamicin and Nebramycin, read-out: Minimum inhibitory concentration
[36] = test system: Staphylococcus aureus ATCC 6538P; assay: as above; assay type: cell-based; conditions: ATCC6538P, read-out: Minimum inhibitory concentration
[37] = test system: Pseudomonas aeruginos KY 8510; assay: as above; assay type: cell-based; conditions: KY8510, pH 8, read-out: Minimum inhibitory concentration
[38] = test system: Proteus mirabilis Finland 9 KY 4293; assay: as above; assay type: cell-based; conditions: FINLAND9KY4293, read-out: Minimum inhibitory concentration

COC1C(O)C(N)C(OC2OC(C(C)N)CCC2N)C(O)C1N(C)C(=O)CN (centres unmarked) [Fortimicin A]
MIC [1]: 0.16 µg/mL (≈ 0.395 µM) | ED50 ([2]; Escherichia coli, JUHLKY4286, sc): 6 mg/kg | Therapeutic effects ([2]; therapy of infectious diseases caused by the tested bacteria): remarkable therapeutic effects | MIC [3]: 0.26 µg/mL (≈ 0.641 µM) | MIC [4]: 0.13 µg/mL (≈ 0.321 µM) | MIC [5]: 0.02 µg/mL (≈ 0.0493 µM) | MIC [6]: 0.08 µg/mL (≈ 0.197 µM) | MIC [7]: 0.6 µg/mL (≈ 1.48 µM) | Antibacterial activity [8]: active upon Gram-positive and Gram-negative bacteria; also recorded: wide range of activity | MIC [9]: 0.26 µg/mL (≈ 0.641 µM) | MIC [10]: 0.3 µg/mL (≈ 0.74 µM) | Antibacterial activity [11]: satisfactory antibacterial activity | Antibacterial activity [12]: strong antibacterial activity | MIC [13]: 1.6 µg/mL (≈ 3.95 µM) | MIC [14]: 0.32 µg/mL (≈ 0.789 µM) | MIC [15]: 0.8 µg/mL (≈ 1.97 µM) | MIC [16]: 0.16 µg/mL (≈ 0.395 µM) | MIC [17]: 0.41 µg/mL (≈ 1.01 µM) | MIC [18]: 1.3 µg/mL (≈ 3.21 µM) | MIC [19]: 0.8 µg/mL (≈ 1.97 µM) | MIC [20]: 0.32 µg/mL (≈ 0.789 µM) | MIC [21]: 5 µg/mL (≈ 12.3 µM) | MIC [22]: 0.3 µg/mL (≈ 0.74 µM) | MIC [23]: 0.13 µg/mL (≈ 0.321 µM) | MIC [24]: 0.6 µg/mL (≈ 1.48 µM) | Antibacterial activity [25]: strong antibacterial activity | MIC [26]: 0.13 µg/mL (≈ 0.321 µM) | MIC [27]: 10 µg/mL (≈ 24.7 µM) | MIC [28]: 0.8 µg/mL (≈ 1.97 µM) | MIC [29]: 0.41 µg/mL (≈ 1.01 µM) | MIC [30]: 1.3 µg/mL (≈ 3.21 µM) | MIC [31]: 0.41 µg/mL (≈ 1.01 µM) | MIC [32]: 0.3 µg/mL (≈ 0.74 µM) | MIC [33]: 0.08 µg/mL (≈ 0.197 µM) | Solubility in organic solvents ([34]; chloroform, benzene, ethyl acetate, butyl acetate, ethyl ether, butanol, petroleum ether, n-hexane, etc., free base): insoluble | Solubility in ethanol and acetone ([34]; ethanol and acetone, free base): slightly soluble | Solubility in methanol ([34]; methanol, free base): soluble | Solubility in the ordinary organic solvents ([34]; ordinary organic solvents): poorly soluble | Solubility in water ([34]; water, free base): soluble; also recorded: very soluble | MIC [35]: 10 µg/mL (≈ 24.7 µM) | MIC [36]: 0.04 µg/mL (≈ 0.0986 µM) | MIC [37]: 5 µg/mL (≈ 12.3 µM) | MIC [38]: 0.8 µg/mL (≈ 1.97 µM)

CNC1C(O)C(OC2OC(C(C)N)CCC2N)C(N)C(O)C1OC (centres unmarked) [Fortimicin B]
Antibacterial activity [8]: activity against Gram-positive and Gram-negative bacteria
